Experimental findings from US7384927B2, “Alkylated porphyrins as pesticides acting both in the presence and absence of light” (priority 2003, dated 2008) are described below.

Common to all, as to assay: Release of alkylated porphyrin from flies after feeding with bait interrupted
Common to all, as to type: in vivo

Data set [1] deals with Stomoxis calcitrans (stable fly). The following applies: S. calcitrans, 1.25 μM porphyrin in the bait. Here is the method: (§1) An appropriate number of flies (50 flies per each experiment) was caged in 115×55×70 mm Plexiglas cages with several holes (ø=0.5 mm) and starved for 36 h. Then, depending on the protocol to be adopted for each specific experiment, the flies were fed with the bait (10% sucrose and 1% autolysed yeast in neutral aqueous solution), which was either porphyrin-free or added with a predetermined concentration of the porphyrin. These flies were then used in the various experimental sessions.
(§2) At predetermined times, the flies were sacrificed by freezing; the dead flies were then homogenized with a Polytron in 10 ml of a 2% aqueous solution of sodium dodecylsulphate (SDS). The suspension was centrifuged for 10 min at 2,000 rpm, the pellet was discarded and known aliquots of the supernatant were diluted by means of a chloroform/methanol binary mixture (1/2, v/v). The porphyrin concentration was measured by reading the fluorescence emitted at wavelengths above 630 nm and interpolating the emission intensity with a calibration plot obtained with known amounts of the porphyrin. The results were expressed as nanomoles of porphyrin recovered per fly.

The subject of data set [2] is Bactrocera oleae (olive fly). The following applies: B. oleae, 1.25 μM porphyrin in the bait. Here is the method: as §1, §2
The subject of data set [3] is Ceratitis capitata (fruit fly). The following applies: C. capitata, 1.25 μM porphyrin in the bait. Here is the method: as §1, §2

`CCCCCCCCCCCC[n+]1ccc(-c2c3nc(c(-c4cc[n+](C)cc4)c4ccc([nH]4)c(-c4cc[n+](C)cc4)c4nc(c(-c5cc[n+](C)cc5)c5ccc2[nH]5)C=C4)C=C3)cc1` [C12, meso[tri(N-methyl-pyridyl), mono(N-dodecyl-pyridyl)]porphine]: the “Recoveries (nmoles of porphyrin per fly), release” value in data set [1] (12 h after feeding interrupted) is on record as 2.8 nmoles of porphyrin per fly; in data set [1] (24 h after feeding interrupted) it was 2.0 nmoles of porphyrin per fly; in data set [1] (48 h after feeding interrupted), 0.9 nmoles of porphyrin per fly; in data set [2] (12 h after feeding interrupted), 2.5 nmoles of porphyrin per fly; in data set [2] (24 h after feeding interrupted) it was 1.4 nmoles of porphyrin per fly; in data set [2] (48 h after feeding interrupted), 0.8 nmoles of porphyrin per fly. The “Recoveries (nmoles of porphyrin per fly), release” value is 2.6 nmoles of porphyrin per fly in data set [3] (12 h after feeding interrupted), 1.1 nmoles of porphyrin per fly in data set [3] (24 h after feeding interrupted) and 0.7 nmoles of porphyrin per fly in data set [3] (48 h after feeding interrupted).
On to `CCCCCCCCCCCCCC[n+]1ccc(-c2c3nc(c(-c4cc[n+](C)cc4)c4ccc([nH]4)c(-c4cc[n+](C)cc4)c4nc(c(-c5cc[n+](C)cc5)c5ccc2[nH]5)C=C4)C=C3)cc1` [C14, meso[tri(N-methyl-pyridyl), mono(N-tetradecyl-pyridyl)]porphine], for which the “Recoveries (nmoles of porphyrin per fly), release” value in data set [1] (12 h after feeding interrupted) is recorded as 4.3 nmoles of porphyrin per fly; in data set [1] (24 h after feeding interrupted) it was 2.2 nmoles of porphyrin per fly; in data set [1] (48 h after feeding interrupted), 0.8 nmoles of porphyrin per fly; in data set [2] (12 h after feeding interrupted) it was 3.2 nmoles of porphyrin per fly; in data set [2] (24 h after feeding interrupted), 2.0 nmoles of porphyrin per fly; in data set [2] (48 h after feeding interrupted), 0.6 nmoles of porphyrin per fly. The “Recoveries (nmoles of porphyrin per fly), release” value in data set [3] (12 h after feeding interrupted) is listed as 3.0 nmoles of porphyrin per fly; in data set [3] (24 h after feeding interrupted), 1.8 nmoles of porphyrin per fly; in data set [3] (48 h after feeding interrupted), 0.7 nmoles of porphyrin per fly.
For `CCCCCCCCCCCCCCCCCC[n+]1ccc(-c2c3nc(c(-c4cc[n+](C)cc4)c4ccc([nH]4)c(-c4cc[n+](C)cc4)c4nc(c(-c5cc[n+](C)cc5)c5ccc2[nH]5)C=C4)C=C3)cc1` [C18, meso[tri(N-methyl-pyridyl), mono(N-octadecyl-pyridyl)]porphine], the “Recoveries (nmoles of porphyrin per fly), release” value in data set [1] (12 h after feeding interrupted) is reported as 4.2 nmoles of porphyrin per fly; in data set [1] (24 h after feeding interrupted), 2.3 nmoles of porphyrin per fly; in data set [1] (48 h after feeding interrupted) it was 1.1 nmoles of porphyrin per fly; in data set [2] (12 h after feeding interrupted), 3.8 nmoles of porphyrin per fly; in data set [2] (24 h after feeding interrupted), 1.7 nmoles of porphyrin per fly; in data set [2] (48 h after feeding interrupted), 0.6 nmoles of porphyrin per fly. In addition, the “Recoveries (nmoles of porphyrin per fly), release” value was 3.7 nmoles of porphyrin per fly in data set [3] (12 h after feeding interrupted), 2.2 nmoles of porphyrin per fly in data set [3] (24 h after feeding interrupted) and 1.0 nmoles of porphyrin per fly in data set [3] (48 h after feeding interrupted).
